Reference: US8871280B1, “Compositions and methods for treating fungal activity in plants or soil” (The United States of America, as represented by the …, priority 2011, dated 2014)

How the values were obtained:
Rhizoctonia solani [1] = assay: Fungicidal vs fungistatic potential (regrowth of mycelial plugs on fresh PDA, 7 days); type: cell-based, Rhizoctonia solani AG-4, isolate Rs 23A; details: fumigation
Protocol: The fungicidal and fungistatic potential of the PEs were determined by the method described by Garber and Houstan (Garber R. H., and B. R. Houston, Phytopathology, 49: 449-450 (1959)). In brief, three 5 mm diameter plugs were taken from the peripheral mycelial growth from each plate and placed in a fresh PDA plate. Following incubation at room temperature for 7 days, observations were recorded for new mycelial growth (fungistatic) or no mycelial growth (fungicidal). As control, peripheral mycelial plugs from soybean oil amended PDA plates were checked for fresh mycelial growth in fresh PDA plates.

Rhizoctonia solani [2] = assay: Filter disk fumigation method, mycelial growth inhibition on PDA; type: cell-based, Rhizoctonia solani AG-4, isolate Rs 23A; details: for Fumig1 % inhibition: fumigation experiment 1; for Fumig2 % inhibition: fumigation experiment 2
Protocol: (§1) Fungal isolate and preparation of inoculum: Rhizoctonia solani AG-4, isolate Rs 23A is a highly virulent pathogenic isolate which infects many vegetables, ornamentals and turfgrasses (Lewis, J. A., and G. C. Papavizas, Soil Biology and Biochemistry, 9:195-201 (1987)). The fungus was grown in potato dextrose agar (PDA) plates and fungal plugs from the freshly growing mycelium were mixed with moist sterilized cracked wheat in a 2 L flask for 15 days in dark at 22° C. (Lakshman, D. K., et al., Proceedings of the National Academy of Science, USA, 95: 6425-6429 (1998)). The infested wheat was air dried in a sterile hood for 3 days, blended in a homogenizer and sieved through a mesh and stored at 2° C. before soil inoculation. A dose response of the inocula was carried out by thoroughly mixing using 0.25, 0.5, 0.75, 1.0, 1.25 and 1.50 g inoculums per Kg dry weight potting soil plus sterile water to maintain 25-30% moisture and incubating at room temperature for two weeks before sowing cucumber (cv muncher) seeds with the infested soil. The percent germination and post-emergence damping off of cucumber seedlings were recorded. The lowest inoculums dose that induced 100% postemergence damping off was estimated to be 1 to 1.25 g/Kg soil for inocula prepared over the span of the experiments. For soil fumigation with plant extracts (PEs), each time the minimum inoculum dose giving rise to 100% damping off was used.
In the second protocol, the chemical was kept not in direct contact with the fungus and we hypothesized that the plant extract will most likely influence the growth of the pathogen by fumigation action. In this approach, three sterile 15 mm filter paper (Whatman International Ltd, Maidstone, UK) disks were placed on the edge of each of three plates on the PDA. Each disk was impregnated in the center with various amounts (5-50 ul/disk) of the test solution/suspension. For negative control, only soybean oil was placed in the filter disk. […] The average radial growth was calculated and the experiment was repeated one more time. Percent growth inhibition was calculated as reported for poison bed assay.

Rhizoctonia solani [3] = assay: Greenhouse suppression of damping off of cucumber seedlings in R. solani infested soil amended with plant extract; type: in vivo, Rhizoctonia solani AG-4, isolate Rs 23A; details: cucumber damping off, soil amendment at 0.3% (v/w), four weeks after sowing
Rhizoctonia solani [4] = assay: Poison food technique (contact action), mycelial growth inhibition in PDA; type: cell-based, Rhizoctonia solani AG-4, isolate Rs 23A; details: for PoisonB1 % inhibition: poison bed experiment 1; for PoisonB2 % inhibition: poison bed experiment 2
Protocol: as §1
In vitro bioassays: Two in vitro bioassay methods were used to investigate the mycelial growth inhibitory potentials of PEs. In the poison food technique, test chemical/plant extract was mixed at concentrations of 15, 30, 45, 60, 75, and 150 μl per 20 ml autoclaved PDA at 50° C., poured on three sterile disposable plastic plates (100×15 mm, Fisherbrand) at 20 ml/plate and cooled to room temperature to solidify (Dhingra, O.D., and J. B. Sinclair, 1995, Basic Plant Pathology Methods, 2nd Edition, Lewis Publishers, Boca Raton and London). […] Each plate was seeded in the center with a 5 mm diameter agar disk of the freshly grown Rhizoctonia pathogen, mycelial side facing the medium, and sealed with stretched Parafilm® M (Fisher Scientific). The plates were incubated in the dark at room temperature and when the pathogen reached to the edge of the plates in the control treatment (soybean oil), radial measurement of fungal growth in plates treated with PEs were recorded by taking three measurements from each plate. The experiment was repeated one more time. The percent mycelial growth inhibition (MGI) due to PE was calculated using the following formula: […] where dc=Avg. radial growth in mm of pathogen in control plate; dt=avg. radial growth in mm of pathogen in treated plate.

cucumber seeds = assay: Greenhouse assay of seed germination and phytotoxicity, soil treated with plant extract alone; details: for Avg. seed germination (+ PE only) / % Seed germination (+ PE only): cucumber, soil amended with 0.3% PE, no pathogen; for Avg. seed germination (+ PE only): 12 seeds sown per pot
Protocol: Soil treatment: For each treatment, 300 g of dry greenhouse soli (Pro-mix, Premier Horticulture LTD, Red Hill, Pa.) was thoroughly mixed with Rhizoctonia inoculum and incubated for 15 days as described above. […] The infested soil treated with only the carrier solution served as an untreated control. Following the treatment, the soil was thoroughly stirred to mix the contents and incubated in a double polythene bag closed tightly in the dark at room temperature for four days for fumigation to occur. Following the incubation, the bag was opened to allow as much PE to dissipate as possible. This was done by sprinkling the surface soil with sterile water every other day, and stirring the soil once every day for seven days. For assay of effect on seed germination and phytotoxicity of the plant extracts, soil was treated with plant extract formulations alone.
Greenhouse studies: Treated soil from each treatment was distributed to 4-inch plastic pots into which 12 seeds of cucumbers (95-100% germination) were sown and lightly watered to keep soil moist. The treatments were color coded and pots were randomized across treatment. All plants were kept in a greenhouse between 20° C. (night) to 26° C. (day) with 14 h of light. There were three pots per treatment in each experiment, and the experiment was repeated three times. As positive control, a broad spectrum popular soil fungicide Banrot® 40 WP (The Scotts Company, Ohio) was used following manufacturer's recommendation to control the disease. Total number of seedlings without any sign of damping off in each pot was recorded and percentage of disease suppression were calculated four weeks after sowing cucumber seeds.

How did the “Effect (fumigation)” value (Rhizoctonia solani [1]; amount oil 15 μL/20 mL plate) turn out when `Cc1ccc(C(C)C)cc1O` [Carvacrol] was run?
Its value is “S”.

What about the “Effect (fumigation)” value (Rhizoctonia solani [1]; amount oil 30 μL/20 mL plate) of the same compound?
The value was “S”.

What about the “Effect (fumigation)” value (Rhizoctonia solani [1]; amount oil 45 μL/20 mL plate) of the same compound?
Its value is “S”.

And the “Effect (fumigation)” value (Rhizoctonia solani [1]; amount oil 60 μL/20 mL plate)?
Its value is “S”.

What about the “Effect (fumigation)” value (Rhizoctonia solani [1]; amount oil 75 μL/20 mL plate) of the same compound?
Its value is “S”.

What about the “Effect (fumigation)” value (Rhizoctonia solani [1]; amount oil 150 μL/20 mL plate) of the same compound?
Its value is “S”.

And the Fumig1 % inhibition (Rhizoctonia solani [2]; amount oil 15 μL/20 mL plate)?
Its Fumig1 % inhibition is 88%.

And the Fumig2 % inhibition (Rhizoctonia solani [2]; amount oil 15 μL/20 mL plate)?
Its Fumig2 % inhibition is 87%.

What about the Fumig1 % inhibition (Rhizoctonia solani [2]; amount oil 30 μL/20 mL plate) of the same compound?
Its Fumig1 % inhibition is 94%.

And the Fumig2 % inhibition (Rhizoctonia solani [2]; amount oil 30 μL/20 mL plate)?
Its Fumig2 % inhibition is 91%.

And the Fumig1 % inhibition (Rhizoctonia solani [2]; amount oil 45 μL/20 mL plate)?
The Fumig1 % inhibition was 100%.

What about the Fumig2 % inhibition (Rhizoctonia solani [2]; amount oil 45 μL/20 mL plate) of the same compound?
Its Fumig2 % inhibition is 91%.

What about the Fumig1 % inhibition (Rhizoctonia solani [2]; amount oil 60 μL/20 mL plate) of the same compound?
The Fumig1 % inhibition was 100%.

And the Fumig2 % inhibition (Rhizoctonia solani [2]; amount oil 60 μL/20 mL plate)?
Its Fumig2 % inhibition is 93%.

What about the Fumig1 % inhibition (Rhizoctonia solani [2]; amount oil 75 μL/20 mL plate) of the same compound?
Its Fumig1 % inhibition is 99%.

What about the Fumig2 % inhibition (Rhizoctonia solani [2]; amount oil 75 μL/20 mL plate) of the same compound?
The Fumig2 % inhibition was 96%.

What about the Fumig1 % inhibition (Rhizoctonia solani [2]; amount oil 150 μL/20 mL plate) of the same compound?
The Fumig1 % inhibition was 100%.

What about the Fumig2 % inhibition (Rhizoctonia solani [2]; amount oil 150 μL/20 mL plate) of the same compound?
Its Fumig2 % inhibition is 100%.

And the “% Disease suppression (+ PE + R. solani)” value (Rhizoctonia solani [3])?
The value was 47.25%.

And the PoisonB1 % inhibition (Rhizoctonia solani [4]; amount oil 15 μL/20 mL plate)?
Its PoisonB1 % inhibition is 100%.

What about the PoisonB2 % inhibition (Rhizoctonia solani [4]; amount oil 15 μL/20 mL plate) of the same compound?
Its PoisonB2 % inhibition is 100%.

What about the PoisonB1 % inhibition (Rhizoctonia solani [4]; amount oil 30 μL/20 mL plate) of the same compound?
The PoisonB1 % inhibition was 100%.

What about the PoisonB2 % inhibition (Rhizoctonia solani [4]; amount oil 30 μL/20 mL plate) of the same compound?
Its PoisonB2 % inhibition is 100%.

And the PoisonB1 % inhibition (Rhizoctonia solani [4]; amount oil 45 μL/20 mL plate)?
Its PoisonB1 % inhibition is 100%.

And the PoisonB2 % inhibition (Rhizoctonia solani [4]; amount oil 45 μL/20 mL plate)?
Its PoisonB2 % inhibition is 100%.

And the PoisonB1 % inhibition (Rhizoctonia solani [4]; amount oil 60 μL/20 mL plate)?
The PoisonB1 % inhibition was 100%.

And the PoisonB2 % inhibition (Rhizoctonia solani [4]; amount oil 60 μL/20 mL plate)?
Its PoisonB2 % inhibition is 100%.

What about the PoisonB1 % inhibition (Rhizoctonia solani [4]; amount oil 75 μL/20 mL plate) of the same compound?
Its PoisonB1 % inhibition is 100%.

And the PoisonB2 % inhibition (Rhizoctonia solani [4]; amount oil 75 μL/20 mL plate)?
Its PoisonB2 % inhibition is 100%.

And the PoisonB1 % inhibition (Rhizoctonia solani [4]; amount oil 150 μL/20 mL plate)?
Its PoisonB1 % inhibition is 100%.

What about the PoisonB2 % inhibition (Rhizoctonia solani [4]; amount oil 150 μL/20 mL plate) of the same compound?
The PoisonB2 % inhibition was 100%.

And the “Avg. seed germination (+ PE only)” value (cucumber seeds)?
Its value is 4.00.

What about the “% Seed germination (+ PE only)” value (cucumber seeds) of the same compound?
Its value is 33.33%.

And the “Phytotoxicity (cucumber seed germination and seedling growth), in words” value (cucumber seeds; greenhouse, soil amendment)?
The value was “slightly inhibited”.

How did the “Effect (fumigation)” value (Rhizoctonia solani [1]; amount oil 15 μL/20 mL plate) turn out when `CC(C)=CCC/C(C)=C/CO` [Geraniol] was run?
The value was “S”.

What about the “Effect (fumigation)” value (Rhizoctonia solani [1]; amount oil 30 μL/20 mL plate) of the same compound?
The value was “S”.

And the “Effect (fumigation)” value (Rhizoctonia solani [1]; amount oil 45 μL/20 mL plate)?
The value was “S”.

And the “Effect (fumigation)” value (Rhizoctonia solani [1]; amount oil 60 μL/20 mL plate)?
The value was “S”.

What about the “Effect (fumigation)” value (Rhizoctonia solani [1]; amount oil 75 μL/20 mL plate) of the same compound?
The value was “S”.

What about the “Effect (fumigation)” value (Rhizoctonia solani [1]; amount oil 150 μL/20 mL plate) of the same compound?
Its value is “S”.

And the Fumig1 % inhibition (Rhizoctonia solani [2]; amount oil 15 μL/20 mL plate)?
The Fumig1 % inhibition was 51%.

And the Fumig2 % inhibition (Rhizoctonia solani [2]; amount oil 15 μL/20 mL plate)?
Its Fumig2 % inhibition is 15%.

What about the Fumig1 % inhibition (Rhizoctonia solani [2]; amount oil 30 μL/20 mL plate) of the same compound?
Its Fumig1 % inhibition is 56%.

And the Fumig2 % inhibition (Rhizoctonia solani [2]; amount oil 30 μL/20 mL plate)?
The Fumig2 % inhibition was 34%.

What about the Fumig1 % inhibition (Rhizoctonia solani [2]; amount oil 45 μL/20 mL plate) of the same compound?
The Fumig1 % inhibition was 62%.

What about the Fumig2 % inhibition (Rhizoctonia solani [2]; amount oil 45 μL/20 mL plate) of the same compound?
The Fumig2 % inhibition was 31%.

And the Fumig1 % inhibition (Rhizoctonia solani [2]; amount oil 60 μL/20 mL plate)?
The Fumig1 % inhibition was 66%.

And the Fumig2 % inhibition (Rhizoctonia solani [2]; amount oil 60 μL/20 mL plate)?
The Fumig2 % inhibition was 54%.

What about the Fumig1 % inhibition (Rhizoctonia solani [2]; amount oil 75 μL/20 mL plate) of the same compound?
The Fumig1 % inhibition was 73%.

And the Fumig2 % inhibition (Rhizoctonia solani [2]; amount oil 75 μL/20 mL plate)?
Its Fumig2 % inhibition is 67%.

What about the Fumig1 % inhibition (Rhizoctonia solani [2]; amount oil 150 μL/20 mL plate) of the same compound?
The Fumig1 % inhibition was 77%.

And the Fumig2 % inhibition (Rhizoctonia solani [2]; amount oil 150 μL/20 mL plate)?
The Fumig2 % inhibition was 61%.

And the “% Disease suppression (+ PE + R. solani)” value (Rhizoctonia solani [3])?
The value was 77.75%.

What about the PoisonB1 % inhibition (Rhizoctonia solani [4]; amount oil 15 μL/20 mL plate) of the same compound?
The PoisonB1 % inhibition was 100%.

And the PoisonB2 % inhibition (Rhizoctonia solani [4]; amount oil 15 μL/20 mL plate)?
The PoisonB2 % inhibition was 100%.

What about the PoisonB1 % inhibition (Rhizoctonia solani [4]; amount oil 30 μL/20 mL plate) of the same compound?
Its PoisonB1 % inhibition is 100%.

And the PoisonB2 % inhibition (Rhizoctonia solani [4]; amount oil 30 μL/20 mL plate)?
The PoisonB2 % inhibition was 100%.

What about the PoisonB1 % inhibition (Rhizoctonia solani [4]; amount oil 45 μL/20 mL plate) of the same compound?
The PoisonB1 % inhibition was 100%.

And the PoisonB2 % inhibition (Rhizoctonia solani [4]; amount oil 45 μL/20 mL plate)?
The PoisonB2 % inhibition was 100%.

And the PoisonB1 % inhibition (Rhizoctonia solani [4]; amount oil 60 μL/20 mL plate)?
The PoisonB1 % inhibition was 100%.

And the PoisonB2 % inhibition (Rhizoctonia solani [4]; amount oil 60 μL/20 mL plate)?
The PoisonB2 % inhibition was 100%.

What about the PoisonB1 % inhibition (Rhizoctonia solani [4]; amount oil 75 μL/20 mL plate) of the same compound?
Its PoisonB1 % inhibition is 100%.

What about the PoisonB2 % inhibition (Rhizoctonia solani [4]; amount oil 75 μL/20 mL plate) of the same compound?
Its PoisonB2 % inhibition is 100%.

And the PoisonB1 % inhibition (Rhizoctonia solani [4]; amount oil 150 μL/20 mL plate)?
The PoisonB1 % inhibition was 100%.

What about the PoisonB2 % inhibition (Rhizoctonia solani [4]; amount oil 150 μL/20 mL plate) of the same compound?
Its PoisonB2 % inhibition is 100%.

And the “Avg. seed germination (+ PE only)” value (cucumber seeds)?
The value was 11.33.

What about the “% Seed germination (+ PE only)” value (cucumber seeds) of the same compound?
The value was 94.41%.
